Measured values taken from US20230265151A1, “GIP/GLP1 CO-AGONIST COMPOUNDS” (priority 2020, published 2023).
Like-named read-outs stand apart in the source and are kept apart here. *1 amine or outer side, *2 acyl side, *3 side chain or, on linkers, in order; H or OH if unused. Where a SMILES comes first, the peptide text is derived from it. Side-chain parts run from the residue outwards. [ ]: non-standard residue; d: D form. The star is where a group is joined. αMePhe(2-F) = C[C@](N)(Cc1ccccc1F)C(=O)O; γGlu = O=C(O)[C@H](CCC(=O)[*:2])N[*:1]; C14 diacid = O=C(O)CCCCCCCCCCCCC(=O)*; αMeY = C[C@](N)(Cc1ccc(O)cc1)C(=O)O; αMeL = CC(C)C[C@](C)(N)C(=O)O; Orn = NCCC[C@H](N)C(=O)O; AEEA = NCCOCCOCC(=O)O; Aib = CC(C)(N)C(=O)O

Tests used:
Type in all cases: cell-based
hGIPR = target: T1, hGIPR (Homo sapiens, UniProt P48546); assay: Functional cAMP formation (HTRF) in HEK-293 clonal cells expressing hGIPR, 0.1% bovine casein, without or with 1.0% human serum albumin
T1 construct: expressed in transfected cells
T1 sequence (P48546 22-466): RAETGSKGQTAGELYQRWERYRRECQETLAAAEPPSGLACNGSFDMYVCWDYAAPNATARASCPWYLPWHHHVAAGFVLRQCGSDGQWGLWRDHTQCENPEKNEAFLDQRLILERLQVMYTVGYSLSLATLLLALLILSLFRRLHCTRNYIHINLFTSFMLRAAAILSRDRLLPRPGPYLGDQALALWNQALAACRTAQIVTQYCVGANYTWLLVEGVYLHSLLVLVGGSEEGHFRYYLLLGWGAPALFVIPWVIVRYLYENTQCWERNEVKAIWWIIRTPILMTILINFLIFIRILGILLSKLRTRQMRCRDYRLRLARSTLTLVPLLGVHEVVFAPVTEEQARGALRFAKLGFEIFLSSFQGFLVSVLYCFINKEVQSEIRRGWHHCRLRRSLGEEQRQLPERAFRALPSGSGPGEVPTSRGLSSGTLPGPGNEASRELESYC
Method in brief: (§1)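 Readings of the HTRF 665/620 nm ratio, which falls as cAMP rises, were converted to nM cAMP using a standard curve after 30 min peptide exposure at 37° C.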

hGCGR = target: T2, hGCGR (Homo sapiens, UniProt P47871); assay: Functional cAMP formation (HTRF) in HEK-293 clonal cells expressing hGCGR, 0.1% bovine casein, without or with 1.0% human serum albumin
T2 construct: expressed in transfected cells
Method in brief: as §1

hGLP-1R = hGLP-1R (Homo sapiens, UniProt P43220); assay: Functional cAMP formation (HTRF) in HEK-293 clonal cells expressing hGLP-1R, 0.1% bovine casein, without or with 1.0% human serum albumin; parameters: expressed in transfected cells; details: 37° C.; for Emax: HEK293, cAMP, percent of maximal response to GLP-1(7-36)NH2, read-out: hGLP-1R Emax, % ± SEM
Method in brief: as §1

[1] = HEK293, cAMP, 37° C., 0.1% bovine casein and 1.0% human serum albumin, percent of maximal response to GIP(1-42)NH2, read-out: hGIPR Emax, % ± SEM
[2] = HEK293, cAMP, 37° C., 0.1% bovine casein, percent of maximal response to GIP(1-42)NH2, arithmetic mean, read-out: hGIPR Emax, % ± SEM
[3] = cAMP, 37° C., 0.1% bovine casein (no human serum albumin), geometric mean, read-out: hGIPR EC50, nM (SEM, n)
[4] = cAMP, 37° C., 0.1% bovine casein (no human serum albumin), geometric mean, read-out: hGCGR EC50, nM (SEM, n)
[5] = cAMP, 37° C., 0.1% bovine casein and 1.0% human serum albumin, geometric mean (SEM, n), read-out: hGCGR EC50, nM (SEM, n)
[6] = 0.1% bovine casein, arithmetic mean
[7] = cAMP, 0.1% bovine casein (no human serum albumin), geometric mean, read-out: hGLP-1R EC50, nM (SEM, n)
[8] = 0.1% bovine casein and 1.0% human serum albumin

T2 sequence (P47871 26-477): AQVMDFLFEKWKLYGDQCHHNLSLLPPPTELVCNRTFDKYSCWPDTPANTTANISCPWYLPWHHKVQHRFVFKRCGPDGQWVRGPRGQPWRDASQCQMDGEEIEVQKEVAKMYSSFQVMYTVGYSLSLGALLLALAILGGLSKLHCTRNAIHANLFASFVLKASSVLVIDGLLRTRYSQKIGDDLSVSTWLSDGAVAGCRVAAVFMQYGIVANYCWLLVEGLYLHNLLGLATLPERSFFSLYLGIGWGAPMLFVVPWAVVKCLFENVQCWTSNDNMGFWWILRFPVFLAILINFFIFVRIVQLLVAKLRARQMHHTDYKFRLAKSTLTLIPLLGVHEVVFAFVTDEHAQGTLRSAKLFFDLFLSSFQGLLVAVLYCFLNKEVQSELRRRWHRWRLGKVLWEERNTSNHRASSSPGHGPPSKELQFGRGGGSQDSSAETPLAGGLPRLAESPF
hGLP-1R, sequence (P43220 24-463): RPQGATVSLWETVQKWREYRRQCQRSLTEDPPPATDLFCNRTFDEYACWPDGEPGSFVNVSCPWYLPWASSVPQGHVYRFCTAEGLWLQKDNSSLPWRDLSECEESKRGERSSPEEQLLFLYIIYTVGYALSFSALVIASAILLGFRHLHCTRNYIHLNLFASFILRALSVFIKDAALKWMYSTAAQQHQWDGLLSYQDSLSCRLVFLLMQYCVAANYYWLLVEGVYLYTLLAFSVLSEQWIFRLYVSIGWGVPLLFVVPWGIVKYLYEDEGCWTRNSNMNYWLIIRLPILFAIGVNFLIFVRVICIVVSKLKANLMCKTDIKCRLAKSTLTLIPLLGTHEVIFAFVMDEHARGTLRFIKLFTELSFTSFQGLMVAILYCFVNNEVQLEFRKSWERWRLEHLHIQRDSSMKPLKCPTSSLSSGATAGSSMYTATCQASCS

`CC[C@H](C)[C@H](NC(=O)[C@H](CC(C)C)NC(=O)[C@](C)(Cc1ccc(O)cc1)NC(=O)[C@@H](CCC(=O)O)NC(=O)[C@@H](NC(=O)[C@H](Cc1ccccc1)NC(=O)[C@H](CCC(=O)O)NC(=O)C(C)(C)NC(=O)[C@H](CCC(N)=O)NC(=O)[C@H](C)NC(=O)[C@H](CCCCNC(=O)COCCOCCNC(=O)COCCOCCNC(=O)CCCCCCCCCOc1ccc(C(=O)O)cc1)NC(=O)[C@H](CCCN)NC(=O)[C@H](CC(=O)O)NC(=O)[C@H](CC(C)C)NC(=O)[C@](C)(CC(C)C)NC(=O)[C@@H](NC(=O)[C@H](CO)NC(=O)[C@H](Cc1ccncc1)NC(=O)[C@H](CC(=O)O)NC(=O)[C@H](CO)NC(=O)[C@@H](NC(=O)[C@](C)(Cc1ccccc1F)NC(=O)[C@@H](NC(=O)CNC(=O)[C@H](CCC(=O)O)NC(=O)C(C)(C)NC(=O)[C@@H](N)Cc1ccc(O)cc1)[C@@H](C)O)[C@@H](C)O)[C@@H](C)CC)[C@@H](C)CC)C(=O)N[C@@H](CCC(=O)O)C(=O)NCC(=O)NCC(=O)N[C@@H](CCCCNC(=O)COCCOCCNC(=O)COCCOCCNC(=O)CCCCCCCCCOc1ccc(C(=O)O)cc1)C(=O)N[C@@H](CO)C(=O)N[C@@H](CO)C(=O)NCC(=O)N[C@@H](C)C(=O)N1CCC[C@H]1C(=O)N1CCC[C@H]1C(=O)N1CCC[C@H]1C(=O)N[C@@H](CO)C(N)=O` [Example 10] gave an Emax (hGIPR; HEK293, read-out: hGIPR Emax, % ± SEM, 0.1% bovine casein and 1.0% human serum albumin, 37° C., percent of maximal response to GIP(1-42)NH2) of 84.9 ± 1.84%, an Emax (hGIPR; HEK293, read-out: hGIPR Emax, % ± SEM, percent of maximal response to GIP(1-42)NH2, 37° C., 0.1% bovine casein, arithmetic mean) of 97.9 ± 1.99% and an EC50 (hGIPR; hGIPR EC50, nM (SEM, n), 0.1% bovine casein and 1.0% human serum albumin, 37° C., geometric mean) of 0.121 nM. For the same compound, the EC50 (hGIPR; hGIPR EC50, nM (SEM, n), cAMP, incubated at 37° C., 0.1% bovine casein (no human serum albumin), geometric mean) was 0.0106 nM, the EC50 (hGCGR; hGCGR EC50, nM (SEM, n), 0.1% bovine casein and 1.0% human serum albumin, 37° C., geometric mean) was > 9950 nM and the EC50 (hGCGR; hGCGR EC50, nM (SEM, n), cAMP, incubated at 37° C., 0.1% bovine casein (no human serum albumin), geometric mean) was > 9950 nM. For the same compound, the EC50 (hGLP-1R; hGLP-1R EC50, nM (SEM, n), 0.1% bovine casein and 1.0% human serum albumin, geometric mean) was 4.38 nM.
`CC[C@H](C)[C@H](NC(=O)[C@H](CCCN)NC(=O)[C@H](CC(=O)O)NC(=O)[C@H](CC(C)C)NC(=O)[C@](C)(CC(C)C)NC(=O)[C@@H](NC(=O)C(C)(C)NC(=O)[C@H](Cc1ccc(O)cc1)NC(=O)[C@H](CC(=O)O)NC(=O)[C@H](CO)NC(=O)[C@@H](NC(=O)[C@](C)(Cc1ccccc1F)NC(=O)[C@@H](NC(=O)CNC(=O)[C@H](CCC(=O)O)NC(=O)C(C)(C)NC(=O)[C@@H](N)Cc1ccc(O)cc1)[C@@H](C)O)[C@@H](C)O)[C@@H](C)CC)C(=O)N[C@@H](C)C(=O)N[C@@H](CCC(N)=O)C(=O)NC(C)(C)C(=O)N[C@@H](CCCN)C(=O)N[C@@H](Cc1ccccc1)C(=O)N[C@H](C(=O)N[C@@H](CCCCNC(=O)COCCOCCNC(=O)COCCOCCNC(=O)COCCOCCNC(=O)CC[C@H](NC(=O)CCCCCCCCCCCCC(=O)O)C(=O)O)C(=O)N[C@@](C)(Cc1ccc(O)cc1)C(=O)N[C@@H](CC(C)C)C(=O)N[C@H](C(=O)N[C@@H](CCCCNC(=O)COCCOCCNC(=O)COCCOCCNC(=O)COCCOCCNC(=O)CC[C@H](NC(=O)CCCCCCCCCCCCC(=O)O)C(=O)O)C(=O)NCC(=O)NCC(=O)N1CCC[C@H]1C(=O)N[C@@H](CO)C(=O)N[C@@H](CO)C(=O)NCC(=O)N[C@@H](C)C(=O)N1CCC[C@H]1C(=O)N1CCC[C@H]1C(=O)N1CCC[C@H]1C(=O)N[C@@H](CO)C(N)=O)[C@@H](C)CC)[C@@H](C)CC` [Example 478] showed an Emax (hGIPR; [1]) of 84%, an Emax (hGIPR; [2]) of 93.9% and an EC50 (hGIPR; [3]) of 0.0139 nM. The EC50 (hGCGR; [4]) was > 9950 nM, the EC50 (hGCGR; [5]) was > 9950 nM and the Emax (hGLP-1R; [6]) was 109%. The EC50 (hGLP-1R; [7]) was 0.322 nM and the EC50 (hGLP-1R; cAMP, 0.1% bovine casein and 1.0% human serum albumin, geometric mean (SEM, n), read-out: hGLP-1R EC50, nM (SEM, n)) was 6.16 nM.
`CC[C@H](C)[C@H](NC(=O)[C@H](CC(C)C)NC(=O)[C@](C)(Cc1ccc(O)cc1)NC(=O)[C@@H](CCC(=O)O)NC(=O)[C@@H](NC(=O)[C@H](Cc1ccccc1)NC(=O)[C@H](CCCCNC(=O)COCCOCCNC(=O)COCCOCCNC(=O)CC[C@H](NC(=O)CCCCCCCCCCCCC(=O)O)C(=O)O)NC(=O)C(C)(C)NC(=O)[C@H](CCC(N)=O)NC(=O)[C@H](C)NC(=O)[C@H](CCCCNC(=O)COCCOCCNC(=O)COCCOCCNC(=O)CC[C@H](NC(=O)CCCCCCCCCCCCC(=O)O)C(=O)O)NC(=O)[C@H](CCCN)NC(=O)[C@H](CC(=O)O)NC(=O)[C@H](CC(C)C)NC(=O)[C@](C)(CC(C)C)NC(=O)[C@@H](NC(=O)C(C)(C)NC(=O)[C@@H](NC(=O)[C@H](CC(=O)O)NC(=O)[C@H](CO)NC(=O)[C@@H](NC(=O)[C@](C)(Cc1ccccc1F)NC(=O)[C@@H](NC(=O)CNC(=O)[C@H](CCC(=O)O)NC(=O)C(C)(C)NC(=O)[C@@H](N)Cc1ccc(O)cc1)[C@@H](C)O)[C@@H](C)O)C(C)C)[C@@H](C)CC)[C@@H](C)CC)C(=O)N[C@@H](CCCN)C(=O)NCC(=O)NCC(=O)N1CCC[C@H]1C(=O)N[C@@H](CO)C(=O)N[C@@H](CO)C(=O)NCC(=O)N[C@@H](C)C(=O)N1CCC[C@H]1C(=O)N1CCC[C@H]1C(=O)N1CCC[C@H]1C(=O)N[C@@H](CO)C(N)=O` [Example 407] (H-Y[Aib]EGT[αMePhe(2-F)]TSDV[Aib]I[αMeL]LD[Orn]K([AEEA-AEEA-γGlu-C14 diacid])AQ[Aib]K([AEEA-AEEA-γGlu-C14 diacid])FI[dE][αMeY]LI[Orn]GGPSSGAPPPS-NH2) gave an Emax (hGIPR; [1]) of 95.4%, an EC50 (hGIPR; [3]) of 0.0114 nM and an EC50 (hGIPR; cAMP, 37° C., 0.1% bovine casein and 1.0% human serum albumin, geometric mean (SEM, n), read-out: hGIPR EC50, nM (SEM, n)) of 1.87 nM. The EC50 (hGCGR; [4]) was > 9950 nM, the EC50 (hGCGR; [5]) was > 9950 nM and the Emax (hGLP-1R; [8]) was 97.2%. It also gave an Emax (hGLP-1R; [6]) of 100% and an EC50 (hGLP-1R; [7]) of 0.156 nM.
Work on `CC[C@H](C)[C@H](NC(=O)[C@H](CCCN)NC(=O)[C@H](CC(=O)O)NC(=O)[C@H](CC(C)C)NC(=O)[C@](C)(CC(C)C)NC(=O)[C@@H](NC(=O)C(C)(C)NC(=O)[C@H](Cc1ccc(O)cc1)NC(=O)[C@H](CC(=O)O)NC(=O)[C@H](CO)NC(=O)[C@@H](NC(=O)[C@](C)(Cc1ccccc1F)NC(=O)[C@@H](NC(=O)CNC(=O)[C@H](CCC(=O)O)NC(=O)C(C)(C)NC(=O)[C@@H](N)Cc1ccc(O)cc1)[C@@H](C)O)[C@@H](C)O)[C@@H](C)CC)C(=O)N[C@@H](C)C(=O)N[C@@H](CCC(N)=O)C(=O)NC(C)(C)C(=O)N[C@@H](CCC(=O)O)C(=O)N[C@@H](Cc1ccccc1)C(=O)N[C@H](C(=O)N[C@@H](CCCCNC(=O)COCCOCCNC(=O)COCCOCCNC(=O)COCCOCCNC(=O)CC[C@H](NC(=O)CCCCCCCCCCCCC(=O)O)C(=O)O)C(=O)N[C@@](C)(Cc1ccc(O)cc1)C(=O)N[C@@H](CC(C)C)C(=O)N[C@H](C(=O)N[C@@H](CCCCNC(=O)COCCOCCNC(=O)COCCOCCNC(=O)COCCOCCNC(=O)CC[C@H](NC(=O)CCCCCCCCCCCCC(=O)O)C(=O)O)C(=O)NCC(=O)NCC(=O)N1CCC[C@H]1C(=O)N[C@@H](CO)C(=O)N[C@@H](CO)C(=O)NCC(=O)N[C@@H](C)C(=O)N1CCC[C@H]1C(=O)N1CCC[C@H]1C(=O)N1CCC[C@H]1C(=O)N[C@@H](CO)C(N)=O)[C@@H](C)CC)[C@@H](C)CC` [Example 343] yielded an Emax (hGIPR; [1]) of 90.2%, an Emax (hGIPR; [2]) of 98.8% and an EC50 (hGIPR; [3]) of 0.0111 nM. For the same compound, the EC50 (hGCGR; [4]) was > 9950 nM, the EC50 (hGCGR; [5]) was > 9950 nM and the Emax (hGLP-1R; [8]) was 98.2%. It also gave an EC50 (hGLP-1R; [7]) of 0.275 nM.
